ChEMBL document CHEMBL4229332, “Novel multi-target azinesulfonamides of cyclic amine derivatives as potential antipsychotics with pro-social and pro-cognitive effects” (Eur J Med Chem, 2018)

What was measured:
[1] = biological target: T1, 5-hydroxytryptamine receptor 2A (Homo sapiens, UniProt P28223); assay: Antagonist activity at human 5-HT2AR expressed in HEK293 cells assessed as inhibition of serotonin-induced calcium flux after 30 mins by HTRF method; type: functional, cell-based
[2] = biological target: 5-hydroxytryptamine receptor 6 (Homo sapiens, UniProt P50406); assay: Antagonist activity at human 5-HT6R expressed in CHO-K1 cells assessed as inhibition of serotonin-induced cAMP accumulation after 30 mins by chemiluminescence-based assay; type: functional, cell-based
[3] = biological target: T2, 5-hydroxytryptamine receptor 1A (Homo sapiens) (UniProt P08908); assay: Antagonist activity at human 5-HT1AR expressed in mouse BA/F3 cells assessed as inhibition of serotonin-induced calcium flux by fluorimetric method; type: functional, cell-based
T2 sequence (whole entry): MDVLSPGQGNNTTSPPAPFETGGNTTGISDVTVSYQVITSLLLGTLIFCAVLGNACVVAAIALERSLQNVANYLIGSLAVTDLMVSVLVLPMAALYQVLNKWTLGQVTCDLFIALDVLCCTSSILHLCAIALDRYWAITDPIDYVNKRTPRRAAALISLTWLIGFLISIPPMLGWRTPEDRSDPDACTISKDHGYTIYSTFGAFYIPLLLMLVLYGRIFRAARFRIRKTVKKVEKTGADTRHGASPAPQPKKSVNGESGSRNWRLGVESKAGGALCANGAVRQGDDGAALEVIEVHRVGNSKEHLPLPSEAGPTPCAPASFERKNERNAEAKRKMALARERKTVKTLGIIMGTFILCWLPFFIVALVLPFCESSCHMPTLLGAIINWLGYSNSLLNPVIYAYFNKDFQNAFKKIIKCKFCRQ

[4] = biological target: D(2) dopamine receptor (Homo sapiens) (UniProt P14416); assay: Antagonist activity at human D2LR expressed in CHO-K1 cells assessed as inhibition of dopamine-induced calcium flux by fluorimetric method; type: functional, cell-based
[5] = biological target: D(2) dopamine receptor (Homo sapiens) (UniProt P14416); assay: Antagonist activity at human D2LR expressed in CHO-K1 cells assessed as inhibition of dopamine-induced calcium flux at 10^-6 M by fluorimetric method; type: functional, cell-based
[6] = Toxicity in ip dosed Sprague-Dawley rat assessed as induction of catalepsy measured every 30 mins up to 240 mins by bar test; type: organism-based; settings: Sprague-Dawley, in vivo
[7] = biological target: D(3) dopamine receptor (Homo sapiens) (UniProt P35462); assay: Displacement of [3H]-methyl-spiperone from human dopamine D3 receptor expressed in CHO cells at 10^-6 M after 60 mins by scintillation counting method relative to control; type: cell-based
[8] = biological target: Sodium-dependent serotonin transporter (Homo sapiens, UniProt P31645); assay: Displacement of [3H]imipramine from recombinant human SERT expressed in CHO cells after 60 mins by scintillation counting method; type: cell-based
[9] = Cmax in Wistar rat plasma at 9 mg/kg per os administered as a single dose by LC-MS/MS analysis; type: ADME, organism-based; design: dose 9 mg/kg; settings: po
[10] = biological target: D(1A) dopamine receptor (Homo sapiens) (UniProt P21728); assay: Displacement of [3H]-SCH 23390 from human dopamine D1 receptor expressed in CHO cells at 10^-6 M after 60 mins by scintillation counting method relative to control; type: cell-based
[11] = biological target: T1, 5-hydroxytryptamine receptor 2A; assay: Antagonist activity at human 5-HT2AR expressed in HEK293 cells assessed as inhibition of serotonin-induced IP1 accumulation after 60 mins by HTRF method; type: functional, cell-based
[12] = biological target: Alpha-2C adrenergic receptor (Homo sapiens) (UniProt P18825); assay: Displacement of [3H]-RX 821002 from human adrenergic alpha2C receptor expressed in CHO cells at 10^-6 M after 60 mins by scintillation counting method relative to control; type: cell-based
[13] = biological target: T3, Alpha-1A adrenergic receptor (Homo sapiens) (UniProt P35348); assay: Displacement of [3H]-prazosin from human adrenergic alpha1A receptor expressed in CHO cells at 10^-6 M after 60 mins by scintillation counting method relative to control; type: cell-based
T3 sequence (whole entry): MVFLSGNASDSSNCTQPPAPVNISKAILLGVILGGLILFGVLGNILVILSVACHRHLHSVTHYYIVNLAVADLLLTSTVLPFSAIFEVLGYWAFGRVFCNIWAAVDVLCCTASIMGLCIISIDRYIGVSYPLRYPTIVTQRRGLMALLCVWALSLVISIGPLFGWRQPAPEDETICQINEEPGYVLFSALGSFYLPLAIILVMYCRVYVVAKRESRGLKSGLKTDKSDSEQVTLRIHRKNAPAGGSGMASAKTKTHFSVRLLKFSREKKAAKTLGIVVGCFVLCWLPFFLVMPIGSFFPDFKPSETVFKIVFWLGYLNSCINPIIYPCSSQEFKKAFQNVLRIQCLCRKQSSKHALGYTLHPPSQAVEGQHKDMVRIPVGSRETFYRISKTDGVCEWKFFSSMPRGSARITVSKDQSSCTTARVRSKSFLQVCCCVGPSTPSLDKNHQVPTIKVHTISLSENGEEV

[14] = Tmax in Wistar rat brain at 9 mg/kg per os administered as a single dose by LC-MS/MS analysis; type: ADME, organism-based; settings: po
[15] = biological target: 5-hydroxytryptamine receptor 1B (Rattus norvegicus) (UniProt P28564); assay: Displacement of [125I]-CYP from 5-HT1BR in rat cerebral cortex at 10^-6 M after 120 mins by scintillation counting analysis relative to control
[16] = biological target: D(2) dopamine receptor (Homo sapiens) (UniProt P14416); assay: Antagonist activity at human D2LR expressed in CHO-K1 cells assessed as inhibition of dopamine-induced cAMP accumulation by chemiluminescence-based assay; type: functional, cell-based
[17] = biological target: D(2) dopamine receptor (Homo sapiens) (UniProt P14416); assay: Displacement of [3H]7-OH-DPAT from human recombinant dopamine D2S receptor expressed in CHO cells at 10^-6 M after 60 mins by scintillation counting analysis relative to control; type: cell-based
[18] = biological target: D(4) dopamine receptor (Homo sapiens) (UniProt P21917); assay: Displacement of [3H]-methyl-spiperone from human dopamine D4 receptor expressed in CHO cells at 10^-6 M after 60 mins by scintillation counting method relative to control; type: cell-based
[19] = biological target: D(2) dopamine receptor (Homo sapiens) (UniProt P14416); assay: Antagonist activity at human D2LR expressed in CHO-K1 cells assessed as inhibition of dopamine-induced cAMP accumulation at 10^-6 M by chemiluminescence-based assay; type: functional, cell-based
[20] = biological target: 5-hydroxytryptamine receptor 7 (Homo sapiens, UniProt P34969); assay: Displacement of [3H]LSD from human recombinant 5-HT7 receptor at 10^-6 M after 120 mins by scintillation counting analysis relative to control
[21] = biological target: T2, 5-hydroxytryptamine receptor 1A (Homo sapiens); assay: Displacement of [3H]-WAY100635 from recombinant full-length human 5-HT1AR expressed in CHO cells at 10^-6 M after 120 mins by scintillation counting method relative to control; type: cell-based

Chain of D(2) dopamine receptor (Homo sapiens) (P14416 whole entry): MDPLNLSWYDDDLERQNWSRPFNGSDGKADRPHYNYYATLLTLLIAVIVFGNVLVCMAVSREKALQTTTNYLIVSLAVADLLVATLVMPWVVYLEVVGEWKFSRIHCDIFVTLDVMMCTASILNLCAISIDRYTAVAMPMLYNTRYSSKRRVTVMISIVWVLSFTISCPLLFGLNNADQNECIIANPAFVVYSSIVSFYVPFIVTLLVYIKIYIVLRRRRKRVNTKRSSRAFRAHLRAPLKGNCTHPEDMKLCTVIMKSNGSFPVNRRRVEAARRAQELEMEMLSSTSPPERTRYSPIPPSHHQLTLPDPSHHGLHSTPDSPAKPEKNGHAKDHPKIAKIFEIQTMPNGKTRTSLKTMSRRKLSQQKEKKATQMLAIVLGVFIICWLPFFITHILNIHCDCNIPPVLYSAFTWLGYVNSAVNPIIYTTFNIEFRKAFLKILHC
T1 sequence (P28223 whole entry): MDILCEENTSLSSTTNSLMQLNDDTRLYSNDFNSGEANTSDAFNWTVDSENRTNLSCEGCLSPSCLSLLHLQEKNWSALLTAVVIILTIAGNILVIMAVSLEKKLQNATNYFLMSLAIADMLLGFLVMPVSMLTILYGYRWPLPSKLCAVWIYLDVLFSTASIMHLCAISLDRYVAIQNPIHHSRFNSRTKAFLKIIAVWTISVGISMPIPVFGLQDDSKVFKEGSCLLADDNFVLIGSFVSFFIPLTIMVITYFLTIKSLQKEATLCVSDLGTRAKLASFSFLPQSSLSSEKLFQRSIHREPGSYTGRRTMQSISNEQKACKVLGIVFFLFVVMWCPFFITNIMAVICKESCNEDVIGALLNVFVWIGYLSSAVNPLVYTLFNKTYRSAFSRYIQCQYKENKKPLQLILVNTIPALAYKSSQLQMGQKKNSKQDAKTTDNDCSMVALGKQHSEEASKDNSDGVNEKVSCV
Chain of 5-hydroxytryptamine receptor 7 (P34969 whole entry): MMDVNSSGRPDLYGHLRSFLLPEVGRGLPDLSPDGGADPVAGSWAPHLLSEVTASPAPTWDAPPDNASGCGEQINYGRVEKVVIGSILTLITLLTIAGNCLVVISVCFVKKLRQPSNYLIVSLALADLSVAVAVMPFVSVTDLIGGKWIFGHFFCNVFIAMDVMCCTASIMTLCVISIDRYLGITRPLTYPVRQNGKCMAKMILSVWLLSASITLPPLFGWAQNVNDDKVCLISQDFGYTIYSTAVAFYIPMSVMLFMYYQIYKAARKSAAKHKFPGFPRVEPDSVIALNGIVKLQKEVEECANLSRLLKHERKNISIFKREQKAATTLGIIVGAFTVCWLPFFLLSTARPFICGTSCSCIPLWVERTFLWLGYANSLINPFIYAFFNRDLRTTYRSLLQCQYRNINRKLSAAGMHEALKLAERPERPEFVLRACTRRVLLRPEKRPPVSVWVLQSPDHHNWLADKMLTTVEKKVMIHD
Chain of D(1A) dopamine receptor (Homo sapiens) (P21728 whole entry): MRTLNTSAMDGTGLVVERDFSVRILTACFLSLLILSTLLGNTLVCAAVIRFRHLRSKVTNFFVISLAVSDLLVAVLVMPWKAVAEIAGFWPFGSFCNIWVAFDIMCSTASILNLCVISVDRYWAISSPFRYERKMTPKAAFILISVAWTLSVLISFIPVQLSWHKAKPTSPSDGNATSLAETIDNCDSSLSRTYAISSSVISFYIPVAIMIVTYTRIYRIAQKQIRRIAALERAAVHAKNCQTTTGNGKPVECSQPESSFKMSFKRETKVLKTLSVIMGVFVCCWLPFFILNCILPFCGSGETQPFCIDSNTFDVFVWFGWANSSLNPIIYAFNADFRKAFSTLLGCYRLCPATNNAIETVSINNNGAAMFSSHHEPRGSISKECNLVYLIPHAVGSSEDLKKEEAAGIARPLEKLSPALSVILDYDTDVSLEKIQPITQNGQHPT
Chain of Alpha-2C adrenergic receptor (Homo sapiens) (P18825 whole entry): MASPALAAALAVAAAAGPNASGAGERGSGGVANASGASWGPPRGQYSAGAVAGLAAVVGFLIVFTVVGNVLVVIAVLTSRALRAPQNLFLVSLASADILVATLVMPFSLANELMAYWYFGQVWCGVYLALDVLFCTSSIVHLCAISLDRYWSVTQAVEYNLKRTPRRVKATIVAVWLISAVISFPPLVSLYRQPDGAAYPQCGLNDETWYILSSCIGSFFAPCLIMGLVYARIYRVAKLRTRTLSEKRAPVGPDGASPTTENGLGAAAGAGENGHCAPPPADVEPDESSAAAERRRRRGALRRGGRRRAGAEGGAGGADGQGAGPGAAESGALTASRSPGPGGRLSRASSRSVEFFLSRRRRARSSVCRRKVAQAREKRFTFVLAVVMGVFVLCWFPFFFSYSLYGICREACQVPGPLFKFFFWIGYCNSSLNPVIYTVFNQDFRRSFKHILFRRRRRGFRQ
Chain of D(4) dopamine receptor (Homo sapiens) (P21917 whole entry): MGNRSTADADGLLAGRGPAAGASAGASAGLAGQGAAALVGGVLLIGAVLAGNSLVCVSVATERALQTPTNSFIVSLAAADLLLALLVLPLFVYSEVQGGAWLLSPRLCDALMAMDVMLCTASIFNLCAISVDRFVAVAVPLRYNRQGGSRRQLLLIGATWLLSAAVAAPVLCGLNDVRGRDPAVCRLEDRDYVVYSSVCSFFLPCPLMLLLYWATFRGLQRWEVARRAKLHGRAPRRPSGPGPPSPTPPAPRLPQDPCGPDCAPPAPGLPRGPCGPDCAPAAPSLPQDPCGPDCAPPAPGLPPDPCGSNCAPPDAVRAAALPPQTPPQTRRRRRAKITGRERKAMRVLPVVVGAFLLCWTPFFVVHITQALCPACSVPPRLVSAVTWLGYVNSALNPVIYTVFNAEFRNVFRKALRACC
Chain of Sodium-dependent serotonin transporter (P31645 whole entry): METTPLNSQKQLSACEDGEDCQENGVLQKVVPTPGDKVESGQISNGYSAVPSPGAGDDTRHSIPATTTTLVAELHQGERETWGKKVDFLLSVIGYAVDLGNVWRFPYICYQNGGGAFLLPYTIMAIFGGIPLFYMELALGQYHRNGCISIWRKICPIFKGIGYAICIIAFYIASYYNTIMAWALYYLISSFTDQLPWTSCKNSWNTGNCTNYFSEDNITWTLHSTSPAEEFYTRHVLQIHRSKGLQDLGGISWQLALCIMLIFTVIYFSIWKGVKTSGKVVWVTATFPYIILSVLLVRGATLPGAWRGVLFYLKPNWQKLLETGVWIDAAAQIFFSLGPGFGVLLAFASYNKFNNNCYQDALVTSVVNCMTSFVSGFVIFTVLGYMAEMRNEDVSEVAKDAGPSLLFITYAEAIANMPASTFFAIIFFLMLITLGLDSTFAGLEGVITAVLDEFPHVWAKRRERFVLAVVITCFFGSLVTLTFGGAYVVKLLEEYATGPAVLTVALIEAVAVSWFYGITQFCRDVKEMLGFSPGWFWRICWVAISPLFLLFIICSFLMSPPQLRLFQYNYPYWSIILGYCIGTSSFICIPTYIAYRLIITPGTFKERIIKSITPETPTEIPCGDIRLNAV
Chain of D(3) dopamine receptor (Homo sapiens) (P35462 whole entry): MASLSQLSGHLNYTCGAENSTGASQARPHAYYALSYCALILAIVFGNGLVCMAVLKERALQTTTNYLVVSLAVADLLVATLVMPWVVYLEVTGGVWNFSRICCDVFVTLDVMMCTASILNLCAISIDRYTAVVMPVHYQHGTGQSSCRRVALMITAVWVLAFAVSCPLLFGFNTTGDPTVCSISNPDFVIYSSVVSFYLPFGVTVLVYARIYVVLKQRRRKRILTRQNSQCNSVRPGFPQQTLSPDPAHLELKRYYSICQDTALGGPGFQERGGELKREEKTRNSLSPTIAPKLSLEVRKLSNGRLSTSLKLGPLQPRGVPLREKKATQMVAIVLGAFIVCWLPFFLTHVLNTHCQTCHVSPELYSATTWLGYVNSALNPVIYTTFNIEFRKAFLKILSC
Chain of 5-hydroxytryptamine receptor 6 (P50406 whole entry): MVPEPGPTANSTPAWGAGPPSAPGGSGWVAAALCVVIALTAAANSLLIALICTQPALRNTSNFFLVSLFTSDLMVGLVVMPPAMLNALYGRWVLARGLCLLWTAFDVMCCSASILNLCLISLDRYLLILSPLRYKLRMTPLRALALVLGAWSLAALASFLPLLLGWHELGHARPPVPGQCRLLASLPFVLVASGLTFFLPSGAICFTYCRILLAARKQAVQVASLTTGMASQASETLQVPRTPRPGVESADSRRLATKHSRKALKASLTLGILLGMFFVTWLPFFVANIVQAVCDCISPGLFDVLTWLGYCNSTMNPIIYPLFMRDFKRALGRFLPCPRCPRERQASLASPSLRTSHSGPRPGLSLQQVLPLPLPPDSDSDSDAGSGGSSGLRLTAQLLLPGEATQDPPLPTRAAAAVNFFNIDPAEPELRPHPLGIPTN
Chain of 5-hydroxytryptamine receptor 1B (Rattus norvegicus) (P28564 whole entry): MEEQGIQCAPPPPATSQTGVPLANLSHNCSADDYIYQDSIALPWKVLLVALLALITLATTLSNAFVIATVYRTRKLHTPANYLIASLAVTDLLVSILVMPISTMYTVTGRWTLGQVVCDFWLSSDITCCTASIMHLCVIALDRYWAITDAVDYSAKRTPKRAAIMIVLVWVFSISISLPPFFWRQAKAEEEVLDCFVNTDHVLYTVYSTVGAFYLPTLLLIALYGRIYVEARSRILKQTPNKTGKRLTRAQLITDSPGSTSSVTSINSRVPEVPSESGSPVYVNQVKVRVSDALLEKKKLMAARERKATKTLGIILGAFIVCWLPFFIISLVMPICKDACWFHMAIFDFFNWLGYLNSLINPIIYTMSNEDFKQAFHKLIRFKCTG

O=S(=O)(c1cncc2ccccc12)N1CCC[C@H]1CCN1CCN(c2nsc3ccccc23)CC1
Kb [1]: 2 nM
Kb [2]: 974 nM
Kb [3]: 11 nM
Kb [4]: 0.42 nM
inhibition [5]: 100%
MTD [6]: 30 mg/kg

O=S(=O)(c1cncc2ccccc12)N1CCC[C@H]1CCN1CCN(c2cccc3sccc23)CC1
inhibition [7]: 98%
Ki [8]: 76 nM
Cmax [9]: 54 nM
inhibition [10]: 10%
Kb [11]: 2.3 nM
inhibition [12]: 99%
inhibition [13]: 94%
Tmax [14]: 1 h
inhibition [15]: 84%
Kb [16]: 3 nM
inhibition [17]: 100%
inhibition [18]: 10%
inhibition [19]: 92%
inhibition [20]: 100%
inhibition [21]: 100%
